Measured values as given in article PMC9150124, “Design of a Potent, Selective, and Brain-Penetrant Inhibitor of Wnt-Deactivating Enzyme Notum by Optimization of a Crystallographic Fragment Hit” (Journal of Medicinal Chemistry, 2022).
Values after ≈ are worked out from the molar mass of the structure shown. Values joined by “and” are separate entries in the source; they are usually repeats but may differ in a detail not shown here. Identical values can stand only once. Counter-ions that a name gives are not always drawn. Each block holds one compound with its values, some of them ahead of it.

Key:
[1] = Aqueous solubility in PBS (pH 7.4); type: physicochemical
Excerpt: Biosciences (Hyderabad, India) or WuXi AppTec (Shanghai, China).
Table S1: Representative assay protocol

[2] = Stability in mouse liver microsomes; type: in vitro ADME; set-up: MLM Stability Cli mean: unit not given here
[3] = target: T1, human Notum (81–451 Cys330Ser) (Homo sapiens, UniProt Q6P988, C330S); assay: Notum OPTS biochemical assay; conditions: for IC50: OPTS substrate, mean, read-out: Notum IC50
T1 construct: human Notum (81–451 Cys330Ser) as the enzyme; made in house
T1 sequence (Q6P988 81-451 C330S): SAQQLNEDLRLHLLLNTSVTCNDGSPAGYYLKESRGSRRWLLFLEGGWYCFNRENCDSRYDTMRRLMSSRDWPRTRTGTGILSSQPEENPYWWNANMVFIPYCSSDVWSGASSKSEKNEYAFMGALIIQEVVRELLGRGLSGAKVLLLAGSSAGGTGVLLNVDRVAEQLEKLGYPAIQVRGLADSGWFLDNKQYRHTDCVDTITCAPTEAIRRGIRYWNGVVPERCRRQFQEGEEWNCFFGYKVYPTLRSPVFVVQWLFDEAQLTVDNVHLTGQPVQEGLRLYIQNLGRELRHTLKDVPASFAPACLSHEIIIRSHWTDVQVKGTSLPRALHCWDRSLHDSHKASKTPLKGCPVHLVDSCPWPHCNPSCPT
Excerpt: The optimization of 6 to deliver this profile was directed at three principle areas of these hit structures: (1) aryl ring 7 (Table 1); (2) the C4 substituent on triazole 8 (Table 2); and (3) further fine-tuning of the triazole 9 (Table 3). […] This assay was used to establish SAR and to identify preferred leads for additional studies.
Methods have been described in detail elsewhere.[23]−[26] Representative concentration–response curves are provided in the Supporting Information.

in vitro = conditions: dog
P-gp (MDR1) = assay: in vitro; conditions: dog
MDR1 (P-gp) = assay: in vitro; conditions: dog
Notum = target: T2, Notum (Homo sapiens, UniProt Q6P988); assay: ABPP-TMT (FP-biotin) proteomic analysis in SW620 cells
T2 sequence (Q6P988 20-496): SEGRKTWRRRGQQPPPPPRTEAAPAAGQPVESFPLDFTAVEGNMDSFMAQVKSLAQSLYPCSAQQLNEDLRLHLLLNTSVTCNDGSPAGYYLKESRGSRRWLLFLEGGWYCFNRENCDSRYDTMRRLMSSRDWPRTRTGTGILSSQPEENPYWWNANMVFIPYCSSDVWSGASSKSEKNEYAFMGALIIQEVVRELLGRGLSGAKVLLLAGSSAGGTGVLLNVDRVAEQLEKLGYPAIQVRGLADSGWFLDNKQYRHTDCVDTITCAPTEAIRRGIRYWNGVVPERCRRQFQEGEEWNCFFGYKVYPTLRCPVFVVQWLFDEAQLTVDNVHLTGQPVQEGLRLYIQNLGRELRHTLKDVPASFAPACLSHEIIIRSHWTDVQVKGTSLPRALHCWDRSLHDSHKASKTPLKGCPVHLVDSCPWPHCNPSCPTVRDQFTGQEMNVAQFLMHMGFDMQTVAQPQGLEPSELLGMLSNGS

[4] = MDCK-MDR1, MDCK-MDR1 AB Papp, apical to basal
[5] = MDCK-MDR1, MDCK-MDR1 BA Papp, basal to apical
[6] = SW620 conditioned media, 1e-8 M
[7] = SW620 conditioned media, 3e-8 M
[8] = SW620 conditioned media, 1e-7 M
[9] = SW620 conditioned media, 3e-7 M
[10] = SW620 conditioned media, 1e-6 M
[11] = SW620 conditioned media, 3e-6 M
[12] = SW620 conditioned media, 1e-5 M

solubility ([1]; PBS pH 7.4, read-out: aq. solubility): 400 µg/mL and 1400 µM
solubility thermodynamic ([1]; PBS, pH 7.4, n = 2, read-out: Thermodynamic Solubility @ RT, mean): 0.399 mg/mL (≈ 1410 µM)
MLM Cli [2]: 4.9/ND μL/min/mg protein
MLM Stability Cli mean ([2]; Table S4): 4.94
half-life ([2]; mouse, liver microsomes, Table S4, read-out: MLM Stability t1/2): 2 h
IC50 [3]: 0.0075 ± 0.0016 µM
Papp (in vitro; [4]): 20 nm/s
Papp (in vitro; [5]): 50 nm/s
Papp (P-gp (MDR1); [4]): 17.4 nm/s
Papp (P-gp (MDR1); [5]): 48.8 nm/s
efflux ratio (P-gp (MDR1); MDCK-MDR1, MDCK-MDR1 efflux ratio (ER)): 2.81
recovery (MDR1 (P-gp); MDCK-MDR1, MDR1-MDCKII A to B % Recovery): 5.93%
recovery (MDR1 (P-gp); MDCK-MDR1, MDR1-MDCKII B to A % Recovery): 65.2%
Compound: FC(F)(F)c1c(Cl)cnc(-n2ccnn2)c1Cl [9c, 3,5-Dichloro-2-(1H-1,2,3-triazol-1-yl)-4-(trifluoromethyl)pyridine]

IC50 [3]: 0.031 ± 0.01 µM
Compound: O=C(O)c1cn(-c2ccc(Cl)c(C(F)(F)F)c2Cl)nn1 [8f, 1-(2,4-Dichloro-3-(trifluoromethyl)phenyl)-1H-1,2,3-triazole-4-carboxylic Acid]

IC50 [3]: 1.8 ± 1 µM
Compound: CC(O)c1cn(-c2ccc(Cl)c(C(F)(F)F)c2Cl)nn1 (stereo not drawn) [8a, 1-(1-(2,4-Dichloro-3-(trifluoromethyl)phenyl)-1H-1,2,3-triazol-4-yl)ethan-1-ol]

IC50 [3]: 1.8 ± 0.5 µM
Compound: OCCCc1cn(-c2ccc(Cl)c(C(F)(F)F)c2Cl)nn1 [8c, 3-(1-(2,4-Dichloro-3-(trifluoromethyl)phenyl)-1H-1,2,3-triazol-4-yl)propan-1-ol]

IC50 [3]: 1.2 ± 0.3 µM
Compound: NC(=O)c1cn(-c2ccc(Cl)c(C(F)(F)F)c2Cl)nn1 [8g, 1-(2,4-Dichloro-3-(trifluoromethyl)phenyl)-1H-1,2,3-triazole-4-carboxamide]

NOTUM intensity normalised to DMSO (Notum; [6]): 1.002
NOTUM intensity normalised to DMSO (Notum; [7]): 0.8137
NOTUM intensity normalised to DMSO (Notum; [8]): 0.7326
NOTUM intensity normalised to DMSO (Notum; [9]): 0.3649
NOTUM intensity normalised to DMSO (Notum; [10]): 0.1945
NOTUM intensity normalised to DMSO (Notum; [11]): 0.1349
NOTUM intensity normalised to DMSO (Notum; [12]): 0.07262
NOTUM intensity normalised to DMSO (Notum; SW620 lysate, 1e-8 M): 1.016
NOTUM intensity normalised to DMSO (Notum; SW620 lysate, 3e-8 M): 0.7635
NOTUM intensity normalised to DMSO (Notum; SW620 lysate, 1e-7 M): 0.7415
NOTUM intensity normalised to DMSO (Notum; SW620 lysate, 3e-7 M): 0.5781
NOTUM intensity normalised to DMSO (Notum; SW620 lysate, 1e-6 M): 0.4746
NOTUM intensity normalised to DMSO (Notum; SW620 lysate, 3e-6 M): 0.3389
NOTUM intensity normalised to DMSO (Notum; SW620 lysate, 1e-5 M): 0.2883
IC50 [3]: 0.91 ± 0.12 µM
Compound: NCc1cn(-c2ccc(Cl)c(C(F)(F)F)c2Cl)nn1 [8i, (1-(2,4-Dichloro-3-(trifluoromethyl)phenyl)-1H-1,2,3-triazol-4-yl)methanamine Hydrochloride]

IC50 [3]: 5.7 ± 2.5 µM
Compound: OCCc1cn(-c2ccc(Cl)c(C(F)(F)F)c2Cl)nn1 [8b, 2-(1-(2,4-Dichloro-3-(trifluoromethyl)phenyl)-1H-1,2,3-triazol-4-yl)ethan-1-ol]

More lines, now with the values behind:

Compound: CCOc1cccc(-n2cc(CO)nn2)c1 [7i, ((3-Ethoxyphenyl)-1H-1,2,3-triazol-4-yl)methanol]
IC50 [3]: 230 ± 20 µM

Compound: OCc1cn(-c2ccc(C(F)(F)F)c(C(F)(F)F)c2)nn1 [7v, ((3,4-Bis(trifluoromethyl)phenyl)-1H-1,2,3-triazol-4-yl)methanol]
IC50 [3]: 2.2 ± 4.4 µM

Compound: Cc1ccc(-n2cc(CO)nn2)cc1 [7k, ((4-Methylphenyl)-1H-1,2,3-triazol-4-yl)methanol]
IC50 [3]: 13 ± 2 µM

Compound: OCc1cn(-c2ccc(F)cc2)nn1 [7j, ((4-Fluorophenyl)-1H-1,2,3-triazol-4-yl)methanol]
% I ([3]; @100 μM): c 40–50% I@100 μM.
IC50 [3]: ~100 µM and 100 µM

Compound: N#Cc1ccc(-n2cc(CO)nn2)cc1 [7m, ((4-Cyanophenyl)-1H-1,2,3-triazol-4-yl)methanol]
IC50 [3]: 270 ± 310 µM

Compound: O=C(O)CSc1ncnc2c(C3CC3)c(Cl)sc12 [compound 1, LP-922056, reference compound]
NOTUM intensity normalised to DMSO (Notum; [6]): 1.677
NOTUM intensity normalised to DMSO (Notum; [7]): 1.111
NOTUM intensity normalised to DMSO (Notum; [8]): 1.2088
NOTUM intensity normalised to DMSO (Notum; [9]): 0.5634
NOTUM intensity normalised to DMSO (Notum; [10]): 0.3108
NOTUM intensity normalised to DMSO (Notum; [11]): 0.1718
NOTUM intensity normalised to DMSO (Notum; [12]): 0.112
NOTUM intensity normalised to DMSO (Notum; SW620 lysate, 1e-8 M): 0.811
NOTUM intensity normalised to DMSO (Notum; SW620 lysate, 3e-8 M): 0.6714
NOTUM intensity normalised to DMSO (Notum; SW620 lysate, 1e-7 M): 0.5739
NOTUM intensity normalised to DMSO (Notum; SW620 lysate, 3e-7 M): 0.495
NOTUM intensity normalised to DMSO (Notum; SW620 lysate, 1e-6 M): 0.3711
NOTUM intensity normalised to DMSO (Notum; SW620 lysate, 3e-6 M): 0.4727
NOTUM intensity normalised to DMSO (Notum; SW620 lysate, 1e-5 M): 0.5374

Compound: OCc1cn(-c2ccccc2)nn1 [7a, (1-Phenyl-1H-1,2,3-triazol-4-yl)methanol]
IC50 [3]: 110 ± 30 µM
